Results on 20 molecules are retold here after patent US12281080B2, “Quinoline-based compounds and methods of inhibiting CDK8/19” (University of South Carolina, priority 2018, dated 2025).

Read-outs that look alike come from different tables or passages of the source.

One test has as its system HL60-Luc cells. Description: HL60-Luc proliferation assay (BLI). It is filed as cell-based. The conditions noted are these: HL-60-Luc, 168 h; 7 days. How it is done:
The anti-leukemic activity was also evaluated with a HL60 assay. The HL60 assay was performed by a similar procedure as MV4-11 assay. A derivative of the HL-60 leukemia cell line was generated to express Luciferase and ZsGreen by lentiviral infection with pHIV-Luc-ZsGreen, to enable leukemia growth analysis by bioluminescence imaging (BLI). The initial Luciferase-ZsGreen transduced cell population was sorted for ZsGreen positivity with fluorescence activated cell sorting and individual clones were tested for luciferase expression. […] The HL-60 assay was performed in 96-well plates by treating the HL60-Luc cells with testing compounds at different concentrations for 7 days, followed by BLI to quantify the effects of test articles on cell proliferation.

Test [1] has as its target CDK8 in complex with Cyclin C (Homo sapiens (Human), UniProt P49336). Description: LanthaScreen Eu Kinase Binding Assay. From the text: The binding of the tracer to the kinase is detected using a europium-labeled anti-tag antibody, which binds to the kinase of interest. […] The binding of an inhibitor to the kinase competes for binding with the tracer, resulting in a loss of FRET.
(In general: In TR-FRET formats the signal depends on donor and acceptor labels being close together.)

Test [2] relates to CDK8/19-mediated NFκB-driven transcription. Briefly: NFκB-dependent luciferase reporter assay in parental 293 reporter cells. It is filed as cell-based, human. The note with it: for Inhibition of NFκB reporter activity / inhibition at 1 µM: 1 uM.
The subject of another test is MV4-11 cells. Description: MV4-11-Luc proliferation assay (BLI). It is filed as cell-based. The conditions noted are these: Homo sapiens, MV4-11, 168 h; 7 days. The protocol:
The anti-leukemic activity was evaluated with a MV4-11 assay. The population of MV4-11 cells, which depend on CDK8/19 for their proliferation, was made to express Luciferase and ZsGreen by lenvtiral infection with pHIV-Luc-ZsGreen, to enable leukemia growth analysis by bioluminescence imaging (BLI). The initial Luciferase-ZsGreen transduced cell population was sorted for ZsGreen positivity with fluorescence activated cell sorting. The MV4-11 assay was performed in 96-well plates by treating the MV4-11-Luc cells with testing compounds at different concentrations for 7 days, followed by BLI to quantify the effects of test articles on cell proliferation.

In a further test the test system is IL8. Briefly: QPCR gene expression in TNFα-treated HEK293 cells. The note with it: 1 μM, TNFα-treated HEK293 cells, QPCR; for inhibition at 1 µM: Homo sapiens, read-out: Inhibition at 1 μM (% Ctrl) IL8. It is filed as cell-based, human. From the text: (§1) Two types of cell-based assays for CDK8/19 inhibition were used to test the efficacy of quinoline quinolone compounds described herein (FIG. 3A). The first cell-based assay, which measures the effects of CDK8/19 inhibitors on RNA levels of CDK8/19-regulated genes by quantitative reverse transcription-PCR (QPCR), is based on the ability of CDK8/19 inhibitors to suppress the induction of NFκB-inducible genes by TNFα and to inhibit basal expression of MYC in human embryonic kidney (HEK) 293 cells, as previously described. In this assay, 293 cells growing in DMEM (High-glucose) media supplemented with 10% FBS are pre-treated with the tested inhibitors or DMSO control for 1 hour and then treated with 10 ng/mL TNFα (an activator of NFκB) for 2 hours (in the presence or absence of the tested inhibitors), followed by RNA extraction and QPCR analysis of RNA expression of specific genes conducted as described (Chen et al., ibid), using housekeeping genes RPL13A and GAPDH as normalization standards. […] All the quinoline derivatives inhibited the expression of all three genes.

A further test concerns MYC. Briefly: QPCR gene expression in TNFα-treated HEK293 cells. It is filed as cell-based, human. The note with it: 1 μM, TNFα-treated HEK293 cells, QPCR; for inhibition at 1 µM: Homo sapiens, read-out: Inhibition at 1 μM (% Ctrl) MYC.
Description: as §1

Another test deals with CXCL1. Description: QPCR gene expression in TNFα-treated HEK293 cells. The class given is cell-based, human. The note with it: 1 μM, TNFα-treated HEK293 cells, QPCR; for inhibition at 1 µM: Homo sapiens, read-out: Inhibition at 1 μM (% Ctrl) CXCL1.
Description: as §1

Setting [3] is: Homo sapiens, 293/NFkB-luc, read-out: IC50 (293-NFKB-Luc).

Chain of CDK8 in complex with Cyclin C (P49336 whole entry): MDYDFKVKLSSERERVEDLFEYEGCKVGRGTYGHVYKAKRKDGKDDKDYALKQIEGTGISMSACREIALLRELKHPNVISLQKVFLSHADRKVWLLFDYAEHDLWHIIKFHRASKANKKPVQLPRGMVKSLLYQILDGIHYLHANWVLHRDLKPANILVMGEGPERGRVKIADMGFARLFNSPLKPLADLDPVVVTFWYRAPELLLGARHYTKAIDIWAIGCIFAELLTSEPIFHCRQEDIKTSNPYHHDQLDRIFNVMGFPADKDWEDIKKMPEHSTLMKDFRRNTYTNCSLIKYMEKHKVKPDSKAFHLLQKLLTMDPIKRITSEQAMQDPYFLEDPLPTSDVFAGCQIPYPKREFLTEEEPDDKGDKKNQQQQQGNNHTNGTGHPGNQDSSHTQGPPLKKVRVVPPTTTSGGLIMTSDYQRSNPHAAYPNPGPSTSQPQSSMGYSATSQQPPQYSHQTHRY
Chain of CDK8 in complex with Cyclin C (P24863 whole entry partner): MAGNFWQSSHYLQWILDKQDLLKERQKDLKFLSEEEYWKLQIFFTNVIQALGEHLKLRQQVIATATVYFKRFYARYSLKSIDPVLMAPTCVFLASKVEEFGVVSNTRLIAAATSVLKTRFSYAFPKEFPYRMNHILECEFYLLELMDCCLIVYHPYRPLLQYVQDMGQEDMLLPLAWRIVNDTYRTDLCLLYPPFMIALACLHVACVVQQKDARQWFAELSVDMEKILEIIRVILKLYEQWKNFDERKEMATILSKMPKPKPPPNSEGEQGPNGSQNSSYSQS

Regarding `CC(=O)N1CCN(C(=O)c2ccc3cc(CCNc4ccnc5ccc(C#N)cc45)ccc3c2)CC1` [compound 6326, 4-[2-[6-(4-acetylpiperazine-1-carbonyl)-2-naphthyl]ethylamino]quinoline-6-carbonitrile], the IC50 in the test with HL60-Luc cells is 162 nM; in test [1], 11.7 nM; in test [2] (setting [3]), 178 nM; in the test on MV4-11 cells, 295 nM.

In turn, `N#Cc1ccc2nccc(NCCc3ccc4cc(C(=O)N5CCNCC5)ccc4c3)c2c1` [compound 6283, 4-((2-(6-(piperazine-1-carbonyl)naphthalen-2-yl)ethyl)amino)quinoline-6-carbonitrile] displayed an IC50 in the test on HL60-Luc cells of 756 nM.

Regarding `FC(F)(F)c1ccc2nccc(NCCc3ccccc3)c2c1` [compound 6150, N-phenethyl-6-(trifluoromethyl)quinolin-4-amine], in test [2], the “Inhibition of NFκB reporter activity” value was “N.A. (10% inh. at 1 uM)”. In addition, the inhibition at 1 µM in test [2] (Homo sapiens) is less than 15%.

For the molecule `CN(CCCN)C(=O)c1ccc2cc(CCNc3ccnc4ccc(C#N)cc34)ccc2c1` [compound 6337, N-(3-aminopropyl)-6-[2-[(6-cyano-4-quinolyl)amino]ethyl]-N-methyl-naphthalene-2-carboxamide], the IC50 was determined as 255 nM with HL60-Luc cells, 9.2 nM in test [1] and 113 nM in test [2] (setting [3]).

In the case of `CN(CCCNC(=O)OC(C)(C)C)C(=O)c1ccc2cc(CCNc3ccnc4ccc(C#N)cc34)ccc2c1` [compound 6336, tert-butyl-N-[3-[[6-[2-[(6-cyano-4-quinolyl)amino]ethyl]naphthalene-2-carbonyl]-methyl-amino]propyl]carbamate], the IC50 in the test with HL60-Luc cells amounted to 154 nM; in test [1], 9.3 nM; in test [2] (setting [3]), 208 nM; in the test on MV4-11 cells it was 181 nM.

Regarding `N#Cc1ccc2nccc(NCCc3ccc4cc(C(=O)N5CC[S+]([O-])CC5)ccc4c3)c2c1` [compound 6295, 4-[2-[6-(1-oxo-1,4-thiazinane-4-carbonyl)-2-naphthyl]ethylamino]quinoline-6-carbonitrile], the IC50 with HL60-Luc cells was 163 nM; in test [1], 5.8 nM; in test [2] (setting [3]), 160 nM; in the test on MV4-11 cells, 218 nM.

For the molecule `CCCNc1ccnc2ccc(C#N)cc12` [compound 6134, 4-(propylamino)quinoline-6-carbonitrile], the inhibition at 1 µM in the test with IL8 came to 62.1%; with MYC, 57.2%; in the test with CXCL1 it was 72.2%.

On to `CC(C)(C)OC(=O)N1CCN(C(=O)c2ccc3cc(CCNc4ccnc5ccc(C#N)cc45)ccc3c2)CC1` [compound 6440, tert-butyl 4-[6-[2-[(6-cyano-4-quinolyl)amino]ethyl]naphthalene-2-carbonyl]piperazine-1-carboxylate], for which the half-inhibitory concentration (IC50) with HL60-Luc cells came to 67 nM; in test [1], 18.9 nM; in test [2] (setting [3]), 137 nM; with MV4-11 cells, 146 nM.

Take `Clc1ccc2nccc(NCCc3ccccc3)c2c1` [compound 6145, 6-chloro-N-phenethylquinolin-4-amine]: the “Inhibition of NFκB reporter activity” value in test [2] was “N.A. (8% inh. at 1 uM)”. Also, in test [2] (Homo sapiens), the inhibition at 1 µM was less than 15%.

`N#Cc1ccc2ncnc(NCCc3ccccc3)c2c1` [Senexin A, reference compound]: the “Inhibition at 1 μM (% Ctrl) IL8” value in the test on IL8 is listed as 29.53%. Further, in the test on MYC, the “Inhibition at 1 μM (% Ctrl) MYC” value is 24.94%. Further, in the test with CXCL1, the “Inhibition at 1 μM (% Ctrl) CXCL1” value turned out to be 34.19%. In addition, in test [2] (parental 293-derived reporter cell line, read-out: HEK293 NFKB CDK8 Reporter IC50), the IC50 stood at 355 nM.

As for `CC(C)Nc1ccnc2ccc(C#N)cc12` [compound 6136, 4-(isopropylamino)quinoline-6-carbonitrile], the inhibition at 1 µM in the test on IL8 is 74.1%; in the test with MYC it was 65.6%; in the test with CXCL1 it was 80.3%.

In the case of `N#Cc1ccc2nccc(NCCc3ccc4cc(C(=O)N5CCN(CCCO)CC5)ccc4c3)c2c1` [compound 6216, 4-((2-(6-(4-(3-hydroxypropyl)piperazine-1-carbonyl)naphthalen-2-yl)ethyl)amino)quinoline-6-carbonitrile], the IC50 in the test with HL60-Luc cells was determined as 161 nM.

As for `Nc1ccc2nccc(NCCc3ccccc3)c2c1` [compound 6164, N4-phenethylquinoline-4,6-diamine], the inhibition at 5 µM in test [2] (Homo sapiens, 5 uM) was 5%.

In turn, `CN(C)C(=O)c1ccc2cc(CCNc3ccnc4ccc(C#N)cc34)ccc2c1` [compound 6219, 6-(2-((6-cyanoquinolin-4-yl)amino)ethyl)-N,N-dimethyl-2-naphthamide] had an IC50 in the test with HL60-Luc cells of 77 nM.

With `Ic1ccc2nccc(NCCc3ccccc3)c2c1` [compound 6147, 6-iodo-N-phenethylquinolin-4-amine], in test [2] (Homo sapiens), the inhibition at 1 µM is less than 15%.

`N#Cc1ccc2nccc(NCCc3ccc4cc(C(=O)N5CCSCC5)ccc4c3)c2c1` [compound 6294, 4-[2-[6-(thiomorpholine-4-carbonyl)-2-naphthyl]ethylamino]quinoline-6-carbonitrile]: the IC50 with HL60-Luc cells is 73.4 nM; in test [1], 9.7 nM; in test [2] (setting [3]) it was 107 nM; in the test with MV4-11 cells, 92 nM.

In the case of `N#Cc1ccc2nccc(NCCc3ccc4cc(C(=O)N5CCS(=N)(=O)CC5)ccc4c3)c2c1` [compound 6299, 4-[2-[6-(1-imino-1-oxo-1,4-thiazinane-4-carbonyl)-2-naphthyl]ethylamino]quinoline-6-carbonitrile], the IC50 in the test with HL60-Luc cells was 260 nM; in test [1], 4.6 nM; in test [2] (setting [3]), 213 nM; with MV4-11 cells, 275 nM.

`Brc1ccc2nccc(NCCc3ccccc3)c2c1` [compound 6146, 6-bromo-N-phenethylquinolin-4-amine]: the “Inhibition of NFκB reporter activity” value in test [2] is on record as “N.A. (10% inh. at 1 uM)”. Besides, the inhibition at 1 µM in test [2] (Homo sapiens) was less than 15%.

On to `CC(C)(C)OC(=O)NCCCN1CCN(C(=O)c2ccc3cc(CCNc4ccnc5ccc(C#N)cc45)ccc3c2)CC1` [compound 6345, tert-butyl-(3-(4-(6-(2-((6-cyanoquinolin-4-yl)amino)ethyl)-2-naphthoyl)piperazin-1-yl)propyl)carbamate], for which the half-inhibitory concentration (IC50) in the test with HL60-Luc cells turned out to be 61 nM; in test [1] it was 8.1 nM; in test [2] (setting [3]), 85 nM; with MV4-11 cells, 122 nM.

On to `N#Cc1ccc2nccc(NCCc3ccc4cc(C(=O)N5CCN(CCCN)CC5)ccc4c3)c2c1` [compound 6346, 4-[2-[6-[4-(3-aminopropyl)piperazine-1-carbonyl]-2-naphthyl]ethylamino]quinoline-6-carbonitrile], for which the IC50 came out at 308 nM in the test on HL60-Luc cells, 6.5 nM in test [1] and 837 nM in test [2] (setting [3]).

For orientation: IC50 means the concentration that inhibits the measured activity by half. Usually inhibition stands for the share of the control response that was lost under treatment. As a reminder, the Inhibition is the share of the control response that was lost under treatment. Read a high Inhibition as a strong effect.
